Test results published in BigSolDB 2.1.

Cc1cc(Cl)cc(C(=O)O)c1N
solubility (mole fraction)
Conditions	278.15 K	283.15 K	288.15 K	293.15 K	298.15 K	303.15 K	308.15 K	313.15 K	318.15 K	323.15 K
in acetone	0.0119	0.0131	0.0152	0.0175	0.0199	0.0227	0.0266	0.0315	0.0371	0.0436
in acetonitrile	0.00122	0.00126	0.00139	0.00154	0.00173	0.00198	0.0023	0.0027	0.00331	0.00423
in ethanol	0.00708	0.00736	0.00758	0.00807	0.00867	0.00934	0.0103	0.0114	0.0129	0.0144
in ethyl acetate	0.00636	0.0067	0.0071	0.00769	0.00829	0.00933	0.0105	0.012	0.0138	0.0162
in isopropanol	0.00728	0.00744	0.0077	0.00809	0.00856	0.00911	0.00977	0.0105	0.0114	0.0123
in methanol	0.00128	0.00157	0.00199	0.00241	0.00305	0.00375	0.00452	0.00556	0.00672	0.00815
in n-butanol	0.00553	0.0057	0.00609	0.00648	0.00729	0.0082	0.00931	0.0109	0.0131	0.016
in n-hexane	0.000105	0.000166	0.000245	0.000343	0.000443	0.000558	0.000685	0.000821	0.000959	0.00113
in n-propanol	0.00516	0.00552	0.00579	0.00646	0.0072	0.00803	0.00936	0.0109	0.0128	0.0153
